Format in all cases: cell-based
A short description of data set [1]: MTT cell viability, prostate cancer cells. Particulars: human, PC-3 prostate cancer cells; PC-3, 0.2 mM, 48 hrs, MTT. How it is done:
(§1) The cells (1×10^5 cells/well in 24-well plates) were cultured for 24 hrs. Different concentrations of Sal-B and its analogs (0, 50, 100, 150, 200, 250 μg/ml) were added to treat the cells. After treating for 48 hrs, 100 μl MTT solution was added to each well, and the plate was placed in an incubator for 1-4 hrs. After adding 400 μl DMSO to treat the cells for 30 min., 200 μl samples were collected and placed in a 96-well plate to conduct the absorption measurement at 550 nm.
(§2) Cancer cells were treated with Sal-B and EBA at concentrations of 0, 0.1, 0.2, 0.3, 0.4, 0.5 mM. After treating for 48 hrs, MTT was added, and then allowed to react for 3 hrs at 37° C. After that, DMSO was added and allowed to react for 30 min., the OD570 absorption values were measured. Cell viability was above 80% when nasopharyngeal cancer cells (Hone-1) were treated with […] Sal-B and EBA. […] But the cell viability remained above 70% for treating with 0.1 mM and 0.2 mM EBA. Similar results were obtained when prostate cancer cells (PC-3) were treated with the drugs: Cell viability was above 80% for treating PC-3 cells with 0.2 mM Sal-B or EBA.
MTT testing was employed to observe the viability of cancer cells after treating with Sal-B and the six synthetic analogs.

Data set [2] in a line: MTT cell viability / observation of normal vascular smooth muscle cells (A10). The following applies: rat, A10 cells, drug concentration 0.2 mM, MTT. How it is done:
as §1
(§3) Cell viability testing (MTT testing) was employed to determine the cytotoxicity of Sal-B and EBA to vascular smooth muscle cells. Vascular smooth muscle cells (cell line A10) were treated with Sal-B and EBA at concentrations of 0, 0.1, 0.2, 0.3, 0.4, and 0.5 mM. After treating for 48 hrs, MTT was added and allowed to react for 3 hrs at 37° C. Then, DMSO was added and allowed to react for 30 min., after that, the OD570 absorption values were measured. Cell viability was still 90% when the drug concentration reached 0.2 mM.
(§4) Sal-B's analogs, compounds A to F, were dissolved in DMSO, and then added to A10 cells to observe the results.

Data set [3] deals with ETAR gene expression in MCF-7 cells. Kind of data set: PCR of ETAR gene expression in MCF-7 cancer cells. The following applies: 48 hrs. The method, then: (§5) PC-3 and MCF-7 cancer cells were treated with Sal-B and EBA for 48 hrs, and the identical concentrations of cellular whole RNA were sampled for the synthesis of cDNA by using reverse transcriptase. The PCR method was then used to compare the amounts of endothelin receptor mRNA expression. While the PC-3 cells were treated with either Sal-B or EBA, its ETAR gene expression was not reduced.

Data set [4] is described as follows: MTT cell viability, nasopharyngeal cancer cells. The following applies: human, Hone-1 nasopharyngeal cancer cells, 48 hrs, MTT. How it is done:
as §1, §2

Data set [5] has as its system nasopharyngeal cancer cells (Hone-1). The data set is described as follows: MTT cell viability, nasopharyngeal cancer cells. Particulars: Hone-1 cells, summary statement. How it is done: as §1, §2
The subject of data set [6] is ETAR gene expression in PC-3 cells. Kind of data set: PCR of ETAR gene expression in PC-3 cancer cells. Particulars: 48 hrs. How it is done: as §5
The next data set relates to ETBR protein expression. The data set is described as follows: Western blot of ETBR protein expression in vascular smooth muscle cells. Particulars: 100 μg/ml, 48 hrs. The method, then: The smooth muscle cells (5×10^5 cells in 35 mm culture dish) were treated with Sal-B and its analogs for 48 hrs, and then a proteinase inhibitor solution was used to collect proteins from the cells.
The protein concentrations in the samples were calculated by using BSA as the standards to construct a standard curve. After mixing Bradford Protein assay reagent evenly with the standards or the samples, the OD595 absorption values were measured. Standard curve was constructed by plotting OD595 values of the BSA standards versus their concentrations. The protein concentrations of the samples were calculated from the standard curve.
Bio-Rad's Mini-Protean III Dual Slab Cell instrument was used. A 12% polyacrylamide separating gel solution was prepared and placed into a electrophoretic gel preparation device. Deionized water was added to flat the surface of the separating gel solution, and the water was poured off after the gel had coagulated. A stacking gel solution containing 5% polyacrylamide was added and then a comb was inserted. The comb was removed after the stacking gel had coagulated, and the gel was placed into an upright electrophoresis tank. A suitable amount of running buffer was added, and then the protein samples were loaded into the wells of stacking gel layer. […]
(In general: Immunoblotting shows a protein as a band on a membrane.)

Data set [7] has as its system Vascular smooth muscle cells (cell line A10). The data set is described as follows: MTT cell viability / observation of normal vascular smooth muscle cells (A10). Particulars: A10 cells, drug concentration 0.2 mM, 48 hrs, MTT. How it is done: as §1, §3, §4

A value given as a limit tells only on which side of the number the result lay.

Consider `O=C(/C=C/c1ccc(O)c2c1[C@H](C(=O)O[C@H](Cc1ccc(O)c(O)c1)C(=O)[O-])[C@@H](c1ccc(O)c(O)c1)O2)O[C@H](Cc1ccc(O)c(O)c1)C(=O)[O-].[Mg+2]` [Sal-B, magnesium lithospermate B], for which the results for the viability at 48 h, 0.2 mM in data set [1] and in data set [2] were greater than 80% and 90%, respectively. Also, the “ETAR gene (mRNA) expression” value in data set [3] is “can reduce the expression of ETAR mRNA”. Also, in data set [4] (Hone-1, 0.05 mM), the viability at 48 h, 0.05 mM was greater than 80%. Moreover, in data set [4] (Hone-1, 0.1 mM and 0.2 mM), the viability at 48 h is roughly 60%. Moreover, the “Inhibition of growth of Hone-1 cells” value in data set [5] is “significantly inhibit the growth”. For the same molecule, the ETAR gene expression entry in data set [6] is listed as “not reduced”. For the same molecule, in the data set with ETBR protein expression, the “ETBR protein expression compared with control” value is reported as “no effect on ETBR protein expression”.
As to epiblechnic acid [EBA], the Cell viability in data set [7] is listed as 90%. Also, in data set [3], the “ETAR gene (mRNA) expression” value is “reduced significantly”. For the same molecule, the ETAR gene expression result in data set [6] is “not reduced”. In the data set with ETBR protein expression, the “ETBR protein expression compared with control” value is given as “no effect on ETBR protein expression”.

A word on the viability: it is a read-out of living cells in per cent, often relative to untreated cells. Low values mean more harm to the cells, high ones less harm to the cells.

These data come from patent publication US8080582B2, “Derivatives of 8-epiblechnic acid and their effects on down-regulation of endothelin (ETA) receptor mRNA” (ScinoPharm Taiwan Ltd., priority 2008, dated 2011).
